Marks after values point to notes of the source that are not given here.
Columns and labels:
malondialdehyde (MDA) = experiment: Tissue malondialdehyde (MDA) levels in jejunum and ileum, colorimetric assay (Example 17); assay type: in vivo, male Albino Sprague Dawley rats; settings: rats, indomethacin […] BID or diclofenac 4 mg/kg BID, 14 days
Experimental: (§1) (indomethacin plus omeprazole ulcerated controls)
(§2) Groups 1 to 11 were treated as follows:
(§3) The whole intestinal tract was removed and intestinal tissue specimens processed for the evaluation of tissue myeloperoxidase (MPO) levels, an index of tissue neutrophils infiltration, of tissue malondialdehyde (MDA) levels, an index of lipid peroxidation and histological analysis of intestinal damage in jejunum and ileum.
MDA concentration in intestinal tissues was determined to obtain quantitative estimates of membrane lipid peroxidation as described by Fornai et al., NSAID-Induced Enteropathy: Are the Currently Available Selective COX-2 Inhibitors All the Same? J Pharmacol Exp Ther January 2014 348:86-95. For this purpose, intestinal tissue was excised, weighed, minced by forceps, homogenized in 2 ml of cold buffer consisting of Tris-HCl 20 mM, at pH 7.4, using a polytron homogenizer (QIAGEN, Milan, Italy), and centrifuged at 1,500 g for 10 min at 4° C. Aliquots of supernatants were then used for subsequent assay procedures. Mucosal MDA concentrations were estimated using a colorimetric assay kit (Cayman Chemical, Ann Arbor, Mich., U.S.A.). Results were expressed as nanomoles of MDA per milligram of intestinal tissue.

[1] = tested on: indomethacin- and diclofenac-induced small intestinal damage; experiment: Microscopical analysis of small intestinal damage in jejunum and ileum (Example 17); assay type: in vivo, male Albino Sprague Dawley rats; settings: rats, 14 days; for Ileum lesions type 1, 2 and 3 (in words) / Jejunal lesions type 1, 2 and 3 (in words): indomethacin […] BID, diclofenac 4 mg/kg BID, omeprazole 0.7 mg/kg/day, gastroresistant rifaximin 50 mg/kg BID, as named in the label; for Ileum Type 1 lesion (%) / Ileum Type 2 lesion (%) / Ileum Type 3 lesion (%) / Jejunum Type 1 lesion (%) / Jejunum Type 2 lesion (%) / Jejunum Type 3 lesion (%): indomethacin […] BID or diclofenac 4 mg/kg BID
Experimental: (§4) Group 1: ten animals treated with drug vehicle for 14 days (normal controls).
(§5) Group 6: twelve omeprazole-treated animals co-treated with gastroresistant rifaximin (50 mg/kg BID) for 14 days (omeprazole controls)
(§6) The enteropathy induced using diclofenac was carried out in the groups 8 to 11 as follows:
(§7) Group 8: fifteen animals treated with diclofenac 4 mg/kg BID (diclofenac ulcerated control
(§8) Group 9: fifteen animals treated with diclofenac 4 mg/kg BID and omeprazole 0.7 mg/kg once daily (diclofenac and omeprazole ulcerated control)
(§9) Group 10: twelve diclofenac-treated animals co-treated with gastroresistant rifaximin (50 mg/kg BID) for 14 days
(§10) Group 11: twelve diclofenac- and omeprazole-treated animals co-treated with gastroresistant rifaximin (50 mg/kg BID) for 14 days
as §2
(§11) Group 1 received 1% methylcellulose (0.3 ml/rat) and 1% methylcellulose (1 ml/rat) for 14 days.
(§12) Group 6 received gastroresistant rifaximin (50 mg/kg; 12 rats/group) suspended in 1% methylcellulose (1 ml/rat), twice daily, 1 hour before omeprazole 0.7 mg/kg once daily
(§13) Group 8 non-fasted rats were treated for 14 days with diclofenac 4 mg/kg BID by intragastric route, suspended in 1% methylcellulose and administered in a volume of 0.3 ml/rat.
(§14) Group 9 non-fasted rats were treated for 14 days with diclofenac 4 mg/kg BID, plus omeprazole 0.7 mg/kg once daily, by intragastric route, suspended in 1% methylcellulose and administered in a volume of 0.3 ml/rat.
(§15) Group 10 received gastroresistant rifaximin (50 mg/kg; 12 rats/group) suspended in 1% methylcellulose (1 ml/rat), twice daily, 1 hour before diclofenac administration
(§16) Group 11 received gastroresistant rifaximin (50 mg/kg; 12 rats/group) suspended in 1% methylcellulose (1 ml/rat), twice daily, 1 hour before diclofenac administration plus omeprazole 0.7 mg/kg once daily.
as §3
(§17) Upon removal, the whole intestinal tract was immediately injected with 10% formalin and left in the same fixative solution. After 30 min, it was opened along the anti-mesenteric border, cleaned of fecal content and fixed in 10% formalin for 24 h. Tissue samples were taken as described below in order to rule out any bias:
The full length of the small intestine was measured.
Sections of jejunum and ileum were embedded into paraffin blocks and cut into […] serial 7-8 μm sections. The slices were cut at two different points of the block: two on the surface and three at a deeper level. Each slice was placed on the slide for staining with haematoxylin and eosin.
The intestinal damage was classified as reported in Table 27 wherein reference is made with respect to the histological appearance of type 1, 2 and 3 lesions of jejunum and ileum to the illustration of FIG. 1
The statistical significance of data was evaluated by one way analysis of variance (ANOVA) followed by post hoc analysis by Student-Newman-Keuls test, and P values lower than 0.05 were considered significant. All statistical procedures were performed using GraphPad Prism 3.0 software (GraphPad Prism, San Diego, Calif., USA).

myeloperoxidase (MPO) [2] = experiment: Tissue myeloperoxidase (MPO) levels in jejunum and ileum, ELISA (Example 17); assay type: in vivo, male Albino Sprague Dawley rats; settings: rats, indomethacin […] BID or diclofenac 4 mg/kg BID, 14 days
Experimental: as §1, §2, §3
MPO was assessed as described by Fornai et al., NSAID-Induced Enteropathy: Are the Currently Available Selective COX-2 Inhibitors All the Same, J Pharmacol Exp Ther January 2014 348:86-95 and assumed as a quantitative index to estimate the degree of intestinal wall infiltration by polymorphonuclear cells.
Specimens of 30 mg intestinal tissues were homogenized on ice with a polytron homogenizer (QIAGEN, Milan, Italy) in 0.6 mL of ice-cold lysis buffer consisting of 200 mM NaCl, 5 mM EDTA, 10 mM Tris, 10% glycerine, 1 mM phenylmethylsulfonyl fluoride, 1 μg/ml leupeptin and 28 μg/ml aprotinin at pH 7.4. The homogenate was centrifuged 2 times at […] at 1.500 g. The supernatant was diluted 1:5 and used for determination of MPO concentration by means of enzyme-linked immunosorbent assay (ELISA). (Hycult Biotech, Uden, Netherlands). All samples were assayed as described in Example 15. The results were expressed as nanograms of MPO per milligram of intestinal tissue.

[3] = Blood hemoglobin levels in indomethacin- and diclofenac-induced enteropathy in rats (Example 17); assay type: in vivo, male Albino Sprague Dawley rats; settings: 14 days; for Blood hemoglobin levels (in words): indomethacin […] BID, diclofenac 4 mg/kg BID, omeprazole 0.7 mg/kg/day, gastroresistant rifaximin 50 mg/kg BID, as named in the label; for Hemoglobin (g/dl): indomethacin […] BID or diclofenac 4 mg/kg BID
Experimental: (§18) A total of one hundred forty two (142) male Albino Sprague Dawley rats, 500 to 600 g body weight (40-week old) were assessed.
as §4, §5, §6, §7, §8, §9, §10, §2, §11, §12, §13, §14, §15, §16
(§19) Twenty four hours after the last dose, the rats were euthanized and samples of blood were collected for the assessment of hemoglobin levels.
Haemoglobin analysis was performed on blood samples collected as reported above, using a Quantichrom Hemoglobin assay kit (Bioassay Systems, Hayward, Calif., USA) and expressed as g/dL.

[4] = Mortality in indomethacin- and diclofenac-induced enteropathy in rats (Example 17); settings: 14 days, indomethacin […] BID, diclofenac 4 mg/kg BID, omeprazole 0.7 mg/kg/day, gastroresistant rifaximin 50 mg/kg BID, as named in the label
Experimental: as §18, §4, §5, §6, §7, §8, §9, §10, §2, §11, §12, §13, §14, §15, §16

myeloperoxidase (MPO) [5] = experiment: Tissue myeloperoxidase (MPO) levels in jejunum and ileum, ELISA (Example 16); assay type: in vivo, male Albino Sprague Dawley rats; settings: rats; indomethacin […] BID 14 days, alone or with gastroresistant rifaximin 25 or 50 mg/kg BID or rifaximin polymorph alpha 50 mg/kg BID
Experimental: (§20) The whole intestinal tract was removed and processed for the evaluation of tissue myeloperoxidase (MPO) levels and histological analysis of intestinal damage in jejunum and ileum.
Specimens of intestinal tissues (30 mg) were homogenized on ice with a polytron homogenizer (QIAGEN, Milan, Italy) in 0.6 mL of ice-cold lysis buffer (200 mM NaCl, 5 mM EDTA, 10 mM Tris, 10% glycerine, 1 mM PMSF, 1 μg/ml leupeptin and 28 μg/ml aprotinin (pH 7.4). The homogenate was centrifuged 2 times at 4° C. for 15 min at 1.500 g. The supernatant was diluted 1:5 and used for determination of MPO concentration by means of enzyme-linked immunosorbent assay (ELISA) (Hycult Biotech, Uden, Netherlands). All samples were assayed within 2 day after collection. The results were expressed as nanograms of MPO per milligram of intestinal tissue.

[6] = Blood hemoglobin levels in indomethacin-induced enteropathy in rats (Example 16); assay type: in vivo, male Albino Sprague Dawley rats
Experimental: as §19
Hemoglobin analysis was performed on rat blood samples collected as reported above, by means of Quantichrom Hemoglobin assay kit (Bioassay Systems, Hayward, Calif., USA) and expressed as g/dL.

[7] = tested on: indomethacin - induced microscopic intestinal damage; experiment: Histological analysis of intestinal damage in jejunum and ileum (Example 16); assay type: in vivo, male Albino Sprague Dawley rats; settings: rats; indomethacin […] BID 14 days, alone or with gastroresistant rifaximin 25 and 50 mg/kg BID or rifaximin polymorph alpha 50 mg/kg BID
Experimental: as §20
as §17, with “Pharmacol. Ther. 1993; 7:29-39. Upon” for “Upon”, “and the full length of small intestine was measured.” for “in order to rule out any bias:”
In particular the following tissue samples were taken • Ileum: 1 cm of tissue proximal to the ileo-cecal valve was discarded and two specimens of 1.5-2 cm of ileum were taken at this edge as well as 5 cm away from the first ileum sample • Proximal jejunum: two specimens of 1.5-2 cm were taken 5 cm away from both the proximal and distal end of the 37.5% of the small intestine total length. • Distal jejunum: two specimens of 1.5-2 cm were taken 5 cm away from both the proximal and distal end of 81% of small intestine's total length.
After fixation, tissues were embedded into paraffin blocks and were cut into consecutive serial 3-μm sections for staining with hematoxylin and eosin. Histological damage was assessed by two observers, blind to the treatment. Each section was given a score of lesion (Type 1 to 3) (TABLE 23).
Quantitative assessment of histological damage was expressed as percentage of the total length of lesions over the total length of the histological section.

SMILES | Ileum MDA (nmol/mg tissue) (malondialdehyde (MDA)) | Jejunum MDA (nmol/mg tissue) (malondialdehyde (MDA)) | Ileum lesions type 1, 2 and 3 (in words) [1] | Jejunal lesions type 1, 2 and 3 (in words) [1] | Ileum Type 1 lesion (%) [1] | Ileum Type 2 lesion (%) [1] | Ileum Type 3 lesion (%) [1] | Jejunum Type 1 lesion (%) [1] | Jejunum Type 2 lesion (%) [1] | Jejunum Type 3 lesion (%) [1] | Blood hemoglobin levels (in words) [3] | Hemoglobin (g/dl) [3] | Mortality (dead/treated animals) [4] | further results
O=C(O)Cc1ccccc1Nc1c(Cl)cccc1Cl [Diclofenac, diclofenac] | 67.1* nmol/mg tissue | 69.44* nmol/mg tissue | occurrence of various degrees of type 1, 2 and 3 lesions in both jejunum and ileum | occurrence of various degrees of type 1, 2 and 3 lesions in both jejunum and ileum | 26* % | 8.8* % | 3* % | 24.6* % | 4.2* % | 0.8* % | significant decrease in blood haemoglobin concentration | 11.3* g/dl | 7/15 | Ileum MDA (nmol/mg tissue) (malondialdehyde (MDA); listed as diclofenac): 67.1 nmol/mg tissue; Jejunum MDA (nmol/mg tissue) (malondialdehyde (MDA); listed as diclofenac): 69.44 nmol/mg tissue; Ileum MPO (ng/mg tissue) (myeloperoxidase (MPO) [2]): 19.35* ng/mg tissue; Jejunum MPO (ng/mg tissue) (myeloperoxidase (MPO) [2]): 20.37* ng/mg tissue; Ileum MPO (ng/mg tissue) (myeloperoxidase (MPO) [2]; listed as diclofenac): 19.35 ng/mg tissue; Jejunum MPO (ng/mg tissue) (myeloperoxidase (MPO) [2]; listed as diclofenac): 20.37 ng/mg tissue; Mortality (%) ([4]; listed as diclofenac): 46.7%
COc1ccc2c(c1)c(CC(=O)O)c(C)n2C(=O)c1ccc(Cl)cc1 [Indomethacin, indomethacin] | 54.47* nmol/mg tissue | 66.15* nmol/mg tissue | occurrence of various degrees of type 1, 2 and 3 lesions in both jejunum and ileum | occurrence of various degrees of type 1, 2 and 3 lesions in both jejunum and ileum | 28.3* % | 11.8* % | 5.2* % | 36* % | 18* % | 4.6* % | significant decrease in blood haemoglobin concentration | 11.6* g/dl | 2/15 | Ileum MDA (nmol/mg tissue) (malondialdehyde (MDA); listed as indomethacin): 54.47 nmol/mg tissue; Jejunum MDA (nmol/mg tissue) (malondialdehyde (MDA); listed as indomethacin): 66.15 nmol/mg tissue; Ileum tissue MPO levels (in words) (myeloperoxidase (MPO) [5]): significant increase in tissue MPO levels; Jejunum tissue MPO levels (in words) (myeloperoxidase (MPO) [5]): significantly increased; Reduction in hemoglobin values ([6]; end of the treatment period (14 days), in respect to the control): about 20%; Blood hemoglobin concentration (in words) ([6]; indomethacin […] BID 14 days, alone or with gastroresistant rifaximin at both doses or rifaximin polymorph alpha 50 mg/kg BID): significant decrease in blood hemoglobin concentration; Ileum type 1 lesions, microscopic assessment (in words) [7]: occurrence of type 1 and 2 lesions; Ileum type 2 lesions, microscopic assessment (in words) [7]: occurrence of type 1 and 2 lesions; Ileum type 3 lesions, microscopic assessment (in words) [7]: no significant differences were detected for type 3 lesions; Jejunum type 1 lesions, microscopic assessment (in words) [7]: occurrence of various degrees of type 1, 2 and 3 lesions; Jejunum type 2 lesions, microscopic assessment (in words) [7]: occurrence of various degrees of type 1, 2 and 3 lesions; Jejunum type 3 lesions, microscopic assessment (in words) [7]: occurrence of various degrees of type 1, 2 and 3 lesions

From patent US20190388411A1, “NSAID ADMINISTRATION AND RELATED COMPOSITIONS, METHODS AND SYSTEMS” (Alfasigma S.p.A., priority 2013, published 2019)
